According to patent US11680049B2, “Certain (2S)-N-[(1S)-1-cyano-2-phenylethyl]-1,4-oxazepane-2-carboxamides as dipeptidyl peptidase 1 inhibitors” (AstraZeneca AB, priority 2014, dated 2023):

Columns and labels:
[1] = described in literature (Schmidt et al. 1984); concomitant ultra-structural changes by electron microscopy; cited from earlier work
[2] = Rat quantitative whole-body autoradiography (QWBA) studies, aortic retention; format: in vivo

aortic retention in rat QWBA studies [2]	SMILES	retention in the aorta in QWBA studies [1]
	CC(c1ccc(Cl)c(Cl)c1)N1N=C(N)CC1=O (centres unmarked) [muzolimine]	retained selectively in the aorta
high level of aortic retention	N#Cc1ccc(-c2ccc(C[C@@H](C#N)NC(=O)C3(N)CCOCC3)cc2)cc1 [WO2010/128324 (Ex. 3), 4-amino-N-[(1S)-1-cyano-2-(4′-cyanobiphenyl-4-yl)ethyl]tetrahydro-2H-pyran-4-carboxamide]	
